Legend:
[1] = target: T1, P2X7R (Mus musculus, UniProt Q9Z1M0); assay: Entry of ethidium bromide into HT-22 cells; type: cell-based; settings: pre-incubation 60 minutes with 100 μM o-ATP before agonist and ethidium bromide
T1 construct: an immortalised mouse hippocampal cell line expressing the endogenous P2X7 gene; endogenous in cells; host or cells: HT-22 mouse hippocampal cell line
T1 sequence (Q9Z1M0 1-595): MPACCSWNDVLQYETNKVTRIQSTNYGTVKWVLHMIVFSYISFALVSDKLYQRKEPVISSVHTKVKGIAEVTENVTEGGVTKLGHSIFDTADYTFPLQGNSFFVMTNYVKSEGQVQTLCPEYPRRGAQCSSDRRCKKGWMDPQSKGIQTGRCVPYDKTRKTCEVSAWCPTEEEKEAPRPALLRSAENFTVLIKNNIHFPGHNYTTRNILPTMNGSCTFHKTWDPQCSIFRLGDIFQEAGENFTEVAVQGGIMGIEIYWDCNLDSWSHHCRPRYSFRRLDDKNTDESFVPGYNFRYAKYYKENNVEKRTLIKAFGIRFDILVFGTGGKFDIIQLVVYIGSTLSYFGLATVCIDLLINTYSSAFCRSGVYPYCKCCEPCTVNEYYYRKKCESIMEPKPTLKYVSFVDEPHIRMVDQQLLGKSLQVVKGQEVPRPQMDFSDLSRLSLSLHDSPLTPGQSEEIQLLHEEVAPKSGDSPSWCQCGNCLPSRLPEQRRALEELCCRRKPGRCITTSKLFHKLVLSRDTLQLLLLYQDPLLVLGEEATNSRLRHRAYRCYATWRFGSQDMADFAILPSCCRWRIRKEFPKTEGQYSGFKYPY
From the text: Yet another method of measuring P2X7R activity involves the entry of ethidium bromide into P2X7R expressing cells. Activation of P2X7R by an agonist allows the entry of ethidium bromide which binds nuclear DNA and emits a fluorescence signal. Alternatively, the propidium dye YOPRO-1 can be substituted for ethidium bromide. An increase in fluorescence can be used as a measure of P2X7 receptor activation. Therefore, the assay can be used to test and quantify the effect of an agent or compound with agonist properties on P2X7R. In the present example, 10^3 HT-22 cells were seeded per well in a 96-well flat bottom microtitre plates and incubated at 37° C./5% CO2 in DMEM medium containing 10% FCS until the cells attached to the culture surface. […] The number of fluorescent cells which have integrated the ethidium bromide to the DNA can then be counted using a fluorescent microscope (Zeiss, Germany). […] Alternatively, ethidium bromide fluorescence can be measured using a Perkin-Elmer fluorescent plate reader (excitation 520 nm, emission 595 nm, slit widths: Ex 15 nm, Em 20 nm). From the readings obtained, a pIC50 figure can be calculated for each candidate agent or compound. […] The specificity of an agonist for P2X7R can be evaluated by pre-incubation of the cells for 60 minutes with 100 μM o-ATP before adding the agonist and ethidium bromide dye.

[2] = test system: mice; assay: Porsolt's forced swim test; type: in vivo, mouse; settings: 100 nM KN-62 or 10 μM oATP, 1 μl each side, dentate gyrus; 24 hours after injection; DBA/201a mice
Experimental: Further validation of role of P2X7R in affective disorders was performed by examining its expression pattern in response to stress and treatment with antidepressant drugs. […] In parallel, a control group of mice was given vehicle solution (i.e. without paroxetine) using the same treatment regiment while a second control group of mice was left undisturbed and stress-free (i.e. untreated) during the same period of the experiments. At the end of the long-term treatment, part of the mice of each experimental group were tested in the dark/light box (test of anxiety behaviour) and in the Porsolt's forced swim test (test of depressive-like behaviour) to confirm the effectiveness of the treatment (FIG. 5). […] The other part of the experimental groups (i.e. mice without test experience) were decapitated, brains rapidly removed and frozen at −80° C. until usage.
The effects of P2X7R inhibition on depressive-like behaviour was assessed 24 hours and 48 hours after infusion of siRNA, control or vehicle according to the standard test paradigm, the Porsolt's forced swim test (Porsolt et al., Arch. Int. Pharmacodym. 229 (1977), 327-336; Porsolt, Rev. Neurosci. 11 (2000), 53-58). […] Compared to vehicle application, no influence of control double stranded RNA (5′-[…]-3′) on floating behaviour (passive stress coping) was detected. […] This interpretation becomes moreover evident when the effects of antidepressants on passive stress coping behaviour in the forced swim test are visualized (FIG. 5). Passive stress coping behaviour increased after acute intrahippocampal injection (bilateral, dentate gyrus) of siRNA targeting P2X7R. The Porsolt's forced swim test is a standard test used to assess the effectiveness of antidepressants and it has been proven by many studies that the test is selectively sensitive for these effects, given that the right animal model is used. The paradigm has been widely used to test pharmaceutical compounds and to validate animal models of depression, which show an increase in passive behaviour as do the mice where P2X7R has been inhibited (siRNA).
The forced swim test is a standard test that measures primary stress-induced reductions in avoidance or escape, termed behavioural despair. The test is used to determine the effectiveness of antidepressants, test new pharmaceutical compounds and validate animal models of depression (Porsolt et al., Arch. Int. Pharmacodym. 229 (1977), 327-336; Porsolt, Rev. Neurosci. 11 (2000), 53-58; Rénéric et al., Behav. Brain Res. 136 (2002), 521-532; Page et al., Psychopharmacology 165 (2003), 194-201; Kelliher et al., Psychoneuroendocrinology 28 (2003), 332-347). The test consists of placing a mouse for a period of 5 minutes into a glass cylinder containing water. Under such circumstances, the mouse cannot touch the bottom of the cylinder and is thus forced to swim. Time, latency and frequency of struggling versus floating are scored as behavioural parameters. […] Increased struggling (i.e. active attempts to escape) indicates active coping behaviour that can be interpreted as an improvement of depression-like symptoms. For example, treatment with serotonergic antidepressants reduce the total time spent floating (Borsini, Neurosci. Biobehav. Rev. 19 (1995), 377-395; Redrobe and Bourin, Psychopharmacology 138 (1998), 198-206, and in parallel increases the time of active behaviour (i.e. swimming or struggling; Lucki et al., Psychopharmacology 155 (2001), 315-322).
The behaviour of individual mice was assessed using the Porsolt's forced swim test 24 hours after injection of vehicle solution, KN-62, or oATP. A pre-exposure of 5 minutes to the test was performed 15-17 minutes after administration of vehicle, KN-62, or oATP. A description of the Porsolt's forced swim test is given in example 9. […]

[3] = target: T1, P2X7R; assay: Calcium influx into HT-22 cells (Oregon green AM ester); type: cell-based; design: dose or concentration left out as unconfirmed; settings: HT-22 cells pre-treated with oATP for 1 hour before BzATP
From the text: Since P2X7R is an ATP-gated ion channel which allows the entry of calcium and sodium ions into cells, a method for identifying P2X7R agonist was established by monitoring calcium influx into HT-22 cells. […] Calcium movement into the cells was visualised under a fluorescent microscope with a fluorescein filter (wavelength 492/517 nm). Oregon green AM ester is a fluorescent dye that binds to intracellular calcium. […] Alternatively, Oregon green AM ester can be replaced by Fluo-3, fluo-4, fluo-5F, fluo-5N, fluo4FF, Fluo4 dextran, Fluo-3 AM, Fluo-4 AM, Fluo-5F AM, Fluo-5N AM and Fluo4FF AM (Molecular Probes). Calcium influx in HT-22 cells can also be measured in 96-well and 384-well microplate using the Calcium Plus Assay Kit (Molecular Device) or FLIPR® Calcium Assay Kit for Fluorometric Imaging Plate Reader Systems (Molecular Device). HT-22 cells can be replaced by any cells expressing P2X7R, including cells that have been genetically modified by introducing an exogenous P2X7 gene.
Activation of P2X7R by the agonist was inhibited by oATP (FIG. 18) as illustrated by the absence of green fluorescence in the cells.

- activation of P2X7R by the agonist (BzATP) after antagonist pre-treatment, calcium influx [3]: inhibited
Structure (SMILES): Nc1ncnc2c1ncn2[C@@H](C=O)O[C@@H](C=O)COP(=O)(O)OP(=O)(O)OP(=O)(O)O [oATP]
- number of fluorescent cells after antagonist pre-incubation (ethidium bromide entry) [1]: reduction in the number of fluorescent cells
- active escape attempts (time, frequency, latency of struggling) in the forced swim test [2]: no changes
- passive behaviour (time, frequency, latency of floating) in the forced swim test [2]: no changes

From patent US7767398B2, “Means and methods for diagnosing and treating affective disorders” (Affectis Pharmaceuticals AG, priority 2003, dated 2010)
